Data taken from US5032597A, “Method of using phenylquinolinecarboxylic acids and derivatives for lymthoid leukemia treatment in a mammal” (priority 1987, dated 1991).
Values after ≈ are worked out from the molar mass of the structure shown. Values joined by “and” are separate entries in the source; they are usually repeats but may differ in a detail not shown here. Equal values may be shown once. Read-outs that look alike come from different tables or passages of the source.

Key:
L1210 leukemia = experiment: Lymphoid Leukemia L1210, survival of tumored mice; assay type: in vivo, CD2F1 mice; settings: for response vs control in vivo at 400 mg/kg: 400 mg/kg i.p.; for response vs control in vivo at 50 mg/kg: 50 mg/kg i.p.; for response vs control in vivo at 200 mg/kg: 200 mg/kg i.p.
Procedure: The efficacy of the compounds of this invention against the transplanted mouse tumors was evaluated in test systems currently in use at the National Cancer Institute for the detection and assessment of anticancer activity. […] J. Cancer, 17, 129-142, (1981); Venditti, J. M., Seminars in Oncology, 8 (4) (1981); Goldin, A. and J. M. Venditti, in Recent Results in Cancer Research, 70, S. K. Carter and Y. Sakurai, Eds., Springer-Verlag, Berlin/Heidelberg, 1980].
The animals used in this test were CD2 F1 mice, all males weighing a minimum of 18 g and all within a 4 g weight range at the start of the test. The test group consisted of six mice. The tumor was implanted in each of the test mice by the intraperitoneal injection of 0.1 ml of diluted ascitic fluid containing 10^5 cells drawn from a mouse with L1210 leukemia. The test compounds were suspended in hydroxypropylcellulose or saline with Tween® 80 surfactant or dissolved in saline and injected intraperitoneally, at various doses, once daily for nine consecutive days starting on day one relative to the day of tumor inoculation (day 0). The control mice received injections of saline or hydroxypropylcellulose vehicle only. The mice were weighed and survivors were recorded on a regular basis for 30 days. The median survival time and the ratio of the median survival time for the treated (T) and control (C) mice was calculated. […] Drug effectiveness was assessed on the basis of the survival time. Results were expressed as a percentage of the control survival time (Median Survival Time: T/C ×100%). The criterion for effectiveness was determined by: T/C×100≥125 percent.

[1] = tested on: human colon carcinoma cells HCT-15; experiment: Human colon tumor test in vitro, HCT-15 cell growth inhibition; assay type: cell-based; settings: HCT-15 cells, compound day 1 to day 4; for in vitro HCT-15 ID50 (50 percent inhibition of number of doublings): 4320 min; for IC50: Homo sapiens, HCT-15, 72 h, read-out: in vitro HCT-15 ID50 (50 percent inhibition of number of doublings)
Procedure: The compound of this invention were also tested for their ability to inhibit the growth of human colon carcinoma cells in vitro.
The human colon carcinoma cells, designated HCT-15, were derived from a specimen of an adenocarcinoma of human colon removed during surgery. The cells were grown in Roswell Park Medical Institute (RPMI) Medium 1640 supplemented with 10% heat inactivated fetal calf serum, penicillin (100 units/ml), streptomycin (100 μg/ml), gentamicin (20 μg/ml), fungizone (25 μg/ml), 0.075 percent sodium bicarbonate, […] 4-(2-hydroxyethyl)-1-piperazineethanesulfonic acid and […] N-tris(hydroxymethyl)methylglycine. […] On day 1 cells from sample dishes were harvested using trypsin (0.25%) treatment and counted with a hemocytometer to determine the number of cells per dish at the time of the addition of the compounds. Compounds of this invention were added in varying concentrations to other cultures. On day 4, treated and control cultures were harvested by trypsin treatment and the number of cells was determined. The number of doublings for the control cells was determined from the cell numbers on days 1 and 4. The ID50, the concentration of compound required to inhibit by 50 percent the number of doublings, was then calculated from the dose-response curve in which cell numbers were plotted on log-log paper against compound concentrations in micrograms per ml.

[2] = Mus musculus, L1210, ip, 720 h, read-out: L1210 Leukemia % T/C (median survival time)
[3] = Mus musculus, L1210, ip, 720 h, nonoptimal Q1DX9 instead of Q3DX9, read-out: L1210 Leukemia % T/C (median survival time)
[4] = Mus musculus, L1210, ip, 720 h, 100 mg/kg i.p., read-out: L1210 Leukemia % T/C (median survival time)
[5] = Mus musculus, L1210, ip, 720 h, 25 mg/kg i.p., nonoptimal Q1DX9 instead of Q3DX9, read-out: L1210 Leukemia % T/C (median survival time)
[6] = Mus musculus, L1210, ip, 720 h, 25 mg/kg i.p., read-out: L1210 Leukemia % T/C (median survival time)

SMILES | in vitro HCT-15 ID50 (50 percent inhibition of number of doublings) [1] | IC50 [1] [µg/mL] | further results
CCc1c(-c2ccc(C(C)CC)cc2)nc2ccc(F)cc2c1C(=O)O (stereo not drawn) [Example 17] | 0.65 µg/mL |  | response vs control in vivo at 400 mg/kg (L1210 leukemia; [2]): 136%
Cc1c(-c2ccc(-c3ccccc3)cc2)nc2cc(Cl)c(Cl)cc2c1C(=O)O [Example 137] | > 5.00 µg/mL |  | response vs control in vivo at 50 mg/kg (L1210 leukemia; [3]): 107%
Cc1c(-c2ccc(-c3ccccc3)cc2)nc2ccc(Cl)cc2c1C(=O)O [Example 171] | < 0.50 µg/mL |  | L1210 Leukemia % T/C (median survival time) (L1210 leukemia; 100 mg/kg i.p.): 164%
Cc1c(-c2ccc(-c3ccccc3)cc2)nc2ccc(C(F)(F)F)cc2c1C(=O)O [Example 56] |  | < 0.5 | response vs control in vivo at 75 mg/kg (L1210 leukemia; Mus musculus, L1210, ip, 720 h, 75 mg/kg i.p., read-out: L1210 Leukemia % T/C (median survival time)): 176%
Cc1c(-c2ccc(SC(C)C)cc2)nc2ccc(F)cc2c1C(=O)O [Example 103] | 0.17 µg/mL |  | response vs control in vivo at 200 mg/kg (L1210 leukemia; [3]): 108%
Cc1ccc2nc(-c3ccc(-c4ccccc4)cc3)c(C)c(C(=O)O)c2c1 [Example 14] |  | 0.38 (≈ 1.08 µM) | response vs control in vivo at 50 mg/kg (L1210 leukemia; [2]): 195%
Cc1c(-c2ccc(-c3ccccc3)c(F)c2)nc2ccc(F)cc2c1C(=O)O [Example 207] |  | 0.02 (≈ 0.0533 µM) | L1210 Leukemia % T/C (median survival time) (L1210 leukemia; 25 mg/kg i.p.): 154%
Cc1c(-c2ccc(C3CCCCC3)cc2)nc2ccc(Br)cc2c1C(=O)O [Example 45] | 0.13 µg/mL |  | response vs control in vivo at 400 mg/kg (L1210 leukemia; [2]): 160%
Cc1ccc2nc(-c3ccc(-c4ccccc4)cc3)c(C)c(C(=O)O)c2c1Cl [Example 83] |  | > 1 | response vs control in vivo at 100 mg/kg (L1210 leukemia; [4]): 198%
Cc1cc2c(C(=O)O)c(C)c(-c3ccc(-c4ccccc4)cc3)nc2cc1Cl [Example 58] | > 0.50 µg/mL |  | response vs control in vivo at 150 mg/kg (L1210 leukemia; Mus musculus, L1210, ip, 720 h, 150 mg/kg i.p., read-out: L1210 Leukemia % T/C (median survival time)): 141%
CCc1c(-c2ccc(C3CCCCC3)cc2)nc2ccc(F)cc2c1C(=O)O [Example 10] | 0.03 µg/mL |  | response vs control in vivo at 200 mg/kg (L1210 leukemia; [2]): 163%
Cc1c(-c2ccc(OCc3ccccc3)cc2)nc2ccc(F)cc2c1C(=O)O [Example 16] |  | 1 (≈ 2.58 µM) | response vs control in vivo at 400 mg/kg (L1210 leukemia; [2]): 190%
Cc1ccc(-c2ccc(-c3nc4ccc(F)c(Cl)c4c(C(=O)O)c3C)cc2)cc1 [Example 168] |  | 0.04 (≈ 0.0986 µM) | L1210 Leukemia % T/C (median survival time) (L1210 leukemia; 100 mg/kg i.p.): 148%
Cc1c(-c2ccc(OCc3ccccc3)cc2)nc2ccc(F)cc2c1C(=O)O [Example 106] | 1.20 µg/mL |  | response vs control in vivo at 25 mg/kg (L1210 leukemia; [5]): 107%
Cc1c(-c2ccc(Oc3ccccc3)cc2)nc2ccc(F)cc2c1C(=O)O [Example 11] | 0.19 µg/mL |  | response vs control in vivo at 25 mg/kg (L1210 leukemia; [6]): 176%
Cc1ccc2nc(-c3ccc(C4CCCCC4)cc3)c(C)c(C(=O)O)c2c1 [Example 96] | < 0.50 µg/mL |  | response vs control in vivo at 37.5 mg/kg (L1210 leukemia; Mus musculus, L1210, ip, 720 h, 37.5 mg/kg i.p., nonoptimal Q1DX9 instead of Q3DX9, read-out: L1210 Leukemia % T/C (median survival time)): 97%
O=C(O)c1cc(-c2ccc(C3CCCCC3)cc2)nc2ccc(F)cc12 [Example 5] |  | 0.02 (≈ 0.0572 µM) | response vs control in vivo at 400 mg/kg (L1210 leukemia; [2]): 141%
CCCCCCCCCCc1ccc(-c2nc3ccc(F)cc3c(C(=O)O)c2C)cc1 [Example 97] | 0.14 µg/mL |  | response vs control in vivo at 25 mg/kg (L1210 leukemia; [5]): 110%
Cc1c(-c2ccc(-c3ccccc3F)cc2)nc2ccc(F)cc2c1C(=O)O [Example 176] | < 0.50 µg/mL and 0.41 µg/mL |  | response vs control in vivo at 37 mg/kg (L1210 leukemia; Mus musculus, L1210, ip, 720 h, 37 mg/kg i.p., read-out: L1210 Leukemia % T/C (median survival time)): 175%
CCCCCCc1ccc(-c2nc3ccc(F)cc3c(C(=O)O)c2C)cc1 [Example 180] | < 0.50 µg/mL |  | response vs control in vivo at 18 mg/kg (L1210 leukemia; Mus musculus, L1210, ip, 720 h, 18 mg/kg i.p., nonoptimal Q1DX9 instead of Q3DX9, read-out: L1210 Leukemia % T/C (median survival time)): 101%
Cc1c(-c2ccc(-c3cccc(F)c3)cc2)nc2ccc(F)cc2c1C(=O)O [Example 73] |  | < 0.1 | response vs control in vivo at 50 mg/kg (L1210 leukemia; [2]): 195%
Cc1c(-c2ccc(C3CCCCC3)cc2)nc2c(Br)cc(Br)cc2c1C(=O)O [Example 136] | > 0.50 µg/mL |  | response vs control in vivo at 25 mg/kg (L1210 leukemia; [5]): 103%
CCc1c(-c2ccc(C3CCCCC3)cc2)nc2ccc(C)cc2c1C(=O)O [Example 105] | 0.33 µg/mL |  | response vs control in vivo at 12.5 mg/kg (L1210 leukemia; Mus musculus, L1210, ip, 720 h, 12.5 mg/kg i.p., nonoptimal Q1DX9 instead of Q3DX9, read-out: L1210 Leukemia % T/C (median survival time)): 108%
Cc1c(-c2ccc(Oc3ccccc3)cc2)nc2ccc(Cl)cc2c1C(=O)O [Example 20] |  | < 0.5 | response vs control in vivo at 200 mg/kg (L1210 leukemia; [2]): 211%
Cc1c(-c2cc(-c3ccccc3)cs2)nc2ccc(F)cc2c1C(=O)O [Example 44] |  | < 0.1 | response vs control in vivo at 100 mg/kg (L1210 leukemia; [4]): 136%
Cc1c(-c2ccc(-c3ccccc3)cc2)nc2ccc(Cl)cc2c1C(=O)O [Example 19] |  | < 0.5 | response vs control in vivo at 25 mg/kg (L1210 leukemia; [6]): 234%
CCN(CC)CCOC(=O)c1c(C)c(-c2ccc(-c3ccccc3F)cc2)nc2ccc(F)cc12 [Example 201] |  | > 1 | response vs control in vivo at 100 mg/kg (L1210 leukemia; [4]): 175%
CCc1c(-c2ccc(-c3ccccc3)cc2)nc2ccc(F)cc2c1C(=O)O [Example 108] | 0.10 µg/mL |  | L1210 Leukemia % T/C (median survival time) (L1210 leukemia; 100 mg/kg i.p.): 166%
Cc1c(-c2ccc(SC(C)C)cc2)nc2ccc(F)cc2c1C(=O)O [Example 13] |  | 0.24 (≈ 0.675 µM) | response vs control in vivo at 400 mg/kg (L1210 leukemia; [2]): 129%
Cc1c(-c2ccc(-c3ccccc3)cc2)nc2cc(Cl)ccc2c1C(=O)O [Example 139] | < 5.00 µg/mL |  | response vs control in vivo at 100 mg/kg (L1210 leukemia; [4]): 146%
